{"source": "paper PMC5665643", "about": "“CHIP as a membrane-shuttling proteostasis sensor” (eLife, 2017)", "key": {"[1]": {"test_system": "EGFP-CHIP-K30A; type III phosphatidylinositol-4 kinases (PI4KIII)", "experiment": "Undocking of EGFP-CHIP-K30A from membranes by PI4KIII inhibitors", "format": "cell-based, murine", "conditions": "same cells followed upon addition of inhibitor; ***p<0.001, t-test; N = 3", "description": "Phospholipase D inhibitors FIPI, VU0155069 and CAY10594 were purchased from Caymen Chemicals (Ann Arbor, MI), wortmannin from Enzo (Farmingdale, NY), PI4KIIIβ inhibitor IN-10 from MedChem Express (Monmouth Junction, NJ), HSP70 inhibitor VER-155008 from Sigma-Aldrich (St. Louis, MO), HSP90 inhibitor 17-(Allylamino)−17-demethoxygeldanamycin (17-AAG) from Biomol (Germany). 1,2-dioleoyl-sn-glycero-3-phosphocholine (DOPC) and 1,2-dipalmitoyl-sn-glycero-3-phosphate (phosphatidic acid, PA) were from Avanti Polar Lipids (Alabaster, AL), 1,2-dipalmitoyl-sn-glycero-3-phosphoinositol-4-phosphate (phosphadtidylinositol-4-phosphate, PI4P) was from Echelon Bioscience (Salt Lake City, UT). All other chemicals were from Sigma-Aldrich if not indicated otherwise. […]\nFor microscopy analysis of CHIP localization, samples were not fixed. […] For quantification, fields of view were chosen randomly. […]\nMembrane localization and Golgi morphology were analyzed manually using ImageJ from following numbers of cells (average of at least three independent experiments): 92 (Figure 1a), 142 (Figure 1d), 90 (Figure 1—figure supplement 1b), 125 (Figure 1—figure supplement 1c), 149 (Figure 1—figure supplement 1d), 84 (Figure 3c), 130 (Figure 5a), 206 (Figure 5g), 240 (Figure 5h), 93 (Figure 5—figure supplement 1d), and 137 (Figure 5—figure supplement 1j). […]"}, "PI4KIII": {"test_system": "PI4KIII", "conditions": "at higher concentrations; ref Nakanishi et al., 1995; cited from earlier work"}}, "data": [{"smiles": "COC[C@H]1OC(=O)c2coc3c2[C@@]1(C)C1=C(C3=O)[C@@H]2CCC(=O)[C@@]2(C)C[C@H]1OC(C)=O", "note": "[wortmannin]", "values": [{"measurement": "undocking of EGFP-CHIP-K30A from cellular membranes, wortmannin", "setting": "[1]", "value": "causes an acute undocking of EGFP-CHIP-K30A from cellular membranes"}, {"measurement": "PI4KIII inhibition", "setting": "PI4KIII", "value": "inhibits PI4KIII if used at higher concentrations"}]}]}
